The results in this text go back to ChEMBL document CHEMBL4431375, “Stereochemistry Balances Cell Permeability and Solubility in the Naturally Derived Phepropeptin Cyclic Peptides” (ACS Med Chem Lett, 2016).

The nature of data set [1]: Octanol-water partition coefficient, log D of the compound at pH 7.4 by shake flask method. The format is physicochemical.
Data set [2] in a line: Thermodynamic aqueous solubility of the compound at 2 mM and pH 7.4 measured after 20 hrs by HPLC analysis. The format is physicochemical. As to conditions: aqueous medium, read-out: Therm_solubility.
Data set [3] is described as follows: Apparent passive permeability in MDCK cells expressing MDR1 (unknown origin) at 5 uM measured after 60 mins by LC-MS/MS analysis. The format is ADME, cell-based, Canis lupus familiaris. As to conditions: dog.
The nature of data set [4]: Metabolic stability in human plasma assessed as compound degradation at 2 uM measured after 30 mins by LC-ESI/MS analysis. In kind it is ADME, cell-free. Conditions: 0.5 h.

Converted amounts (≈) assume the structure as drawn.

A word on the logD: it is lipophilicity at a set pH, counting ionised and neutral species. By Papp is commonly meant the rate of passage across a membrane or cell layer, normalised by area and donor concentration. As for `CC[C@H](C)[C@@H]1NC(=O)[C@@H](CC(C)C)NC(=O)[C@H](CC(C)C)NC(=O)[C@H]2CCCN2C(=O)[C@@H](Cc2ccccc2)NC(=O)[C@H](CC(C)C)NC1=O`, in data set [1], the logD came to 2.39. Moreover, the solubility thermodynamic at 20 h, 2000 µM in data set [2] was determined as 70 µg/mL (≈ 100 µM). In data set [3], the Papp at 1 h, 5 µM was 15 ×10⁻⁶ cm/s. In addition, in data set [4], the Stability result was “Stable”.
In the same order, the values of `CC(C)C[C@@H]1NC(=O)[C@H](C(C)C)NC(=O)[C@@H](CC(C)C)NC(=O)[C@H](Cc2ccccc2)NC(=O)[C@@H]2CCCN2C(=O)[C@@H](Cc2ccccc2)NC1=O` are 2.33, 50 µg/mL (≈ 69.7 µM), 39 ×10⁻⁶ cm/s and “Stable”.
In turn, `CC(C)C[C@@H]1NC(=O)[C@H](C(C)C)NC(=O)[C@@H](CC(C)C)NC(=O)[C@H](CC(C)C)NC(=O)[C@@H]2CCCN2C(=O)[C@@H](Cc2ccccc2)NC1=O` yielded a logD in data set [1] of 2.08. Besides, the solubility thermodynamic at 20 h, 2000 µM in data set [2] amounted to 170 µg/mL (≈ 249 µM). The apparent permeability (Papp) at 1 h, 5 µM in data set [3] stood at 33 ×10⁻⁶ cm/s. Also, in data set [4], the Stability result is “Stable”.
With `CC(C)C[C@@H]1NC(=O)[C@H](C(C)C)NC(=O)[C@@H](CC(C)C)NC(=O)[C@H](Cc2ccccc2)NC(=O)[C@H]2CCCN2C(=O)[C@@H](Cc2ccccc2)NC1=O`, in data set [1], the logD was 2.41. In addition, the solubility thermodynamic at 20 h, 2000 µM in data set [2] amounted to 70 µg/mL (≈ 97.6 µM). Further, in data set [3], the Papp at 1 h, 5 µM is 11 ×10⁻⁶ cm/s. The Stability result in data set [4] is recorded as “Stable”.
In turn, `CC(C)C[C@@H]1NC(=O)[C@H](C(C)C)NC(=O)[C@@H](CC(C)C)NC(=O)[C@H](CC(C)C)NC(=O)[C@H]2CCCN2C(=O)[C@@H](Cc2ccccc2)NC1=O` had a logD in data set [1] of 2.37. The solubility thermodynamic at 20 h, 2000 µM in data set [2] worked out at 150 µg/mL (≈ 220 µM). In addition, the Papp at 1 h, 5 µM in data set [3] is 8 ×10⁻⁶ cm/s. Besides, in data set [4], the Stability entry is given as “Stable”.
Regarding `CC[C@H](C)[C@@H]1NC(=O)[C@@H](CC(C)C)NC(=O)[C@H](Cc2ccccc2)NC(=O)[C@@H]2CCCN2C(=O)[C@@H](Cc2ccccc2)NC(=O)[C@H](CC(C)C)NC1=O`, the solubility thermodynamic at 20 h, 2000 µM in data set [2] came out at 10 µg/mL (≈ 13.7 µM). The Papp at 1 h, 5 µM in data set [3] is 40 ×10⁻⁶ cm/s. Further, the Stability result in data set [4] is listed as “Stable”.
The like results for `CC[C@H](C)[C@@H]1NC(=O)[C@@H](CC(C)C)NC(=O)[C@H](Cc2ccccc2)NC(=O)[C@H]2CCCN2C(=O)[C@@H](Cc2ccccc2)NC(=O)[C@H](CC(C)C)NC1=O` were, in that order, 30 µg/mL (≈ 41 µM), 18 ×10⁻⁶ cm/s and “Stable”.
Compound `CC[C@H](C)[C@@H]1NC(=O)[C@@H](CC(C)C)NC(=O)[C@H](CC(C)C)NC(=O)[C@@H]2CCCN2C(=O)[C@@H](Cc2ccccc2)NC(=O)[C@H](CC(C)C)NC1=O` displayed a logD in data set [1] of 2.63. The solubility thermodynamic at 20 h, 2000 µM in data set [2] was 60 µg/mL (≈ 86.1 µM). Moreover, the Papp at 1 h, 5 µM in data set [3] was found to be 40 ×10⁻⁶ cm/s. Besides, the Stability entry in data set [4] was “Stable”.
